Test results taken from US20250073189A1, “NATURAL DIETARY SUPPLEMENT FOR MENTAL HEALTH” (Mind Pop LLC, priority 2023, published 2025).

Legend:
[1] = Inventors' unspecified tests and research on single ingredients of the supplement; type: in vivo
Description: Caffeine is far and away the most widely known compound in the composition, however, the present invention uses the caffeine as a clean source of energy to go along with methylliberine and theacrine.

[2] = Inventors' dose testing of theacrine (50-400 mg); type: in vivo; conditions: according to research and trials; unlike caffeine
Procedure: Theacrine advances the beneficial effects of the compounds of this invention in unexpected ways. […] Throughout the studies pertaining to this invention, it has been discovered that low blood pressure is paramount for the proper firing of synapses and proper chemical balance in the brain. Testing in doses from 50-400 mg of theacrine have narrowed the optimum range to 125-150 mg, and more particularly about 140 mg. […] This is made possible by the waste removal from phosphatidylserine and enhanced by alpha-glycerylphosphorylcholine which spreads these effects beyond the brain, throughout the entire body.

Phosphatidylserine
effectiveness as supplementary ingredient (membrane functions, nutrient entry, cortisol modulation, waste exit) ([1]; in vivo): unexpectedly effective

Cn1c(=O)c2c(ncn2C)n(C)c1=O [Caffeine, reference compound]
cognitive effects ([1]; 70 mg of caffeine): tremendous cognitive effects

Cn1c(=O)c2c(n(C)c1=O)n(C)c(=O)n2C [Theacrine]
effect on blood pressure [2]: does not seem to significantly affect blood pressure

C[N+](C)(C)CCOP(=O)([O-])OC[C@H](O)CO [alpha-glycerylphosphorylcholine, Alpha-glycerylphosphorylcholine]
effect on muscular output and reaction times ([1]; many tests and much research): increase muscular output and reaction times

COc1nc2c(c(=O)n1C)n(C)c(=O)n2C [Methylliberine]
energy boost in combination with the other ingredients ([1]; at precisely 140 mg, with caffeine and theacrine): unexpected energy boost
